Laboratory results taken from publication PMC5249140, “Delineating Substrate Diversity of Disparate Short-Chain Dehydrogenase Reductase from Debaryomyces hansenii” (PLoS ONE, 2017).

B1: DHK (SDR from Debaryomyces hansenii) (Debaryomyces hansenii CBS767) (protein)
chain: MTRTVFVSGASGFIAQNIVKLLIEKGYNVIGTVRTAEKGENLKKCLASEKFTYEIVPDISVEGAFDKVLEKHSEINVLLHTASPFFYDTTDPENDLVLPAINGTKNILKAVKQYGAQIERVVITSSDAAIYSADDEQNSDLSFNESNWNSISYEDAIKDPIAAYYGAKTFAEKAAWDFVKENNSNFKLTAVNPVYVFGPQAFASEVKGKLNTSNELINTLIKLGPSDLFDNDKGGFIDVRDVAKAHVMAFESEDTINKRLYLTNGHFSTQMMLDIVNKNFPELKGKIPIGNPGTGSQDISTLAKMSNDATRQILNFDFNSLEKVVADTVAQILDARKRTL
notes: full-length codon-optimised synthetic gene in pET28a, N-terminal His6 tag kept, E. coli BL21(DE3), ~39 kDa, monomer

Experiments:
[1] = biological target: T1, DHK (SDR from Debaryomyces hansenii) (Debaryomyces hansenii, UniProt Q6BTD7); test: differential scanning fluorimetry, SYPRO orange; format: binding; conditions: 50 μM ligand, 2.5 μM enzyme; apo Tm 28.04°C
T1 construct: gene DEHA2D01496g; full-length codon-optimised synthetic gene in pET28a, N-terminal His6 tag kept, E. coli BL21(DE3), ~39 kDa, monomer

[2] = biological target: T2, FabG (β-keto ACP reductase) (Synechococcus elongatus, UniProt Q31QF3); test: differential scanning fluorimetry, SYPRO orange; format: binding; conditions: 2.5 μM enzyme; apo Tm 58°C, with NADPH 65°C
T2 construct: gene Synpcc7942_0684; codon-optimised synthetic gene in pET28a, N-terminal His6 tag, E. coli BL21(DE3), ~29 kDa
T2 sequence (Q31QF3 entry or part of it): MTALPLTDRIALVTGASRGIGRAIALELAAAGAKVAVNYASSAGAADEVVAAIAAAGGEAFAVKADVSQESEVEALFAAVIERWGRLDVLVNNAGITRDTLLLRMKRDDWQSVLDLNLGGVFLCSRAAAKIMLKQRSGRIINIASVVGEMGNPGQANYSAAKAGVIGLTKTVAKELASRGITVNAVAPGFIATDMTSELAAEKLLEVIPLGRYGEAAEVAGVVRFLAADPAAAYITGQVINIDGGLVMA

purified protein [3] = substrate: NC(=O)C1=CN([C@@H]2O[C@H](COP(=O)(O)OP(=O)(O)OC[C@H]3O[C@@H](n4cnc5c(N)ncnc54)[C@H](OP(=O)(O)O)[C@@H]3O)[C@@H](O)[C@H]2O)C=CC1; test: purified protein; format: biochemical, Debaryomyces hansenii; conditions: 2 mM ethyl 4-chloro acetoacetate, 100 mM sodium phosphate, 100 mM NaCl, pH 7.4, 25°C, varied: cofactor
purified protein [4] = substrate: CCOC(=O)CC(=O)CCl; test: purified protein; format: biochemical, Debaryomyces hansenii; conditions: 300 μM NADPH, 100 mM sodium phosphate, 100 mM NaCl, pH 7.4, 25°C

Row | Molecule | ΔTm [1] [°C] | Tm shift [2] [°C] | Km (purified protein [3]) [µM] | Km (purified protein [4]) [µM]
1 | NC(=O)C1=CN([C@@H]2O[C@H](COP(=O)(O)OP(=O)(O)OC[C@H]3O[C@@H](n4cnc5c(N)ncnc54)[C@H](O)[C@@H]3O)[C@@H](O)[C@H]2O)C=CC1 [NADH] | 1.82 |  |  | 
2 | NC(=O)C1=CN([C@@H]2O[C@H](COP(=O)(O)OP(=O)(O)OC[C@H]3O[C@@H](n4cnc5c(N)ncnc54)[C@H](OP(=O)(O)O)[C@@H]3O)[C@@H](O)[C@H]2O)C=CC1 [NADPH] | 6.05 | 7 |  | 
3 | B1 |  |  | 51.09 | 616.1
